Where a name gives a salt, the structure may show the parent alone. Read-outs that look alike come from different tables or passages of the source.
What was measured:
[1] = system: spontaneous motility of female Charles River CDl mice; experiment: Effect of the products on the spontaneous motility (actimeter test); format: in vivo; conditions: Mus musculus, po, 0.75 h, 45 min after administration, recorded 10 min, vs controls, * p 0,05, ** p 0,01 (Student test), read-out: Locomotor activity Score (p.cent/controls); for change in vivo at 250 mg/kg: 250 mg/kg p.o.; for change in vivo at 100 mg/kg: 100 mg/kg p.o.
Experimental: (§1) The sedative effect is translated by the reduction of the spontaneous motility of the animals. This was measured by the actimeter test developed by BOISSIER and SIMON (1965). The equipment was composed of actimetric cages, of the Apelab type (26×21.5×10 cm), through which pass two light rays which act on a photoelectric cell. The batches were constituted by 12 female Charles River CDl mice weighing between 20 and 24 g. The animals were placed individually in the cages 45 minutes after the oral administration of the products at the dose of 250 mg/kg or at the dose of 100 mg/kg. Each passage through a light beam was counted by an individual meter. The scores corresponding to the movements of the animals were recorded for 10 minutes and compared with the scores made by the batches of control animals, treated solely by the vehicle (0.1N HCl).

[2] = Lethal dose in the mouse after acute administration; conditions: in vivo; for mortality at 72 h: po, read-out: % of toxicity (animals which die); for LD50 at 72 h: oral, calculated, read-out: LD50 (DL50)
Experimental: The products were administered by the oral route to batches of 5 female Charles River CDl mice, weighing between 20 and 24 g. They were solubilized in 0.1N HCl.
Toxicity was noted during the 72 hours following administration of the products. The LD50 was calculated for two products.
The results expressed in percentage of animals which die in the […] consecutive to the oral administration of the products are noted in the preceding Table.

[3] = system: loss of the turn-around reflex in Charles River CDl mice; experiment: Potentialization of narcosis by pentobarbital; format: in vivo; conditions: po; mouse; product 60 min before pentobarbital 20 mg/kg i.p.
Experimental: With a view to assessing the hypnogenic power of the products, we have studied their capacity to potentialize the effects of a subnarcotic dose of pentobarbital in the mouse. The batches were constituted by 10 Charles River CDl mice, weighing between 20 and 24 g. The pentobarbital (20 mg/kg, i.p.) was administered 60 minutes after administration of the products. The criterion of sleep-induction retained was the loss of the turn-around reflex.

[4] = system: convulsions induced by an electric shock in Charles River CDl mice; experiment: Antagonism of the convulsions induced by an electric shock; format: in vivo; conditions: 1 h; mouse; oral, 60 min before electric shock (12.5 volts, 0.3 seconds); read-out: Median effective dose (ED50) Antagonism of the electric shock
Experimental: (§2) The anti-epileptic effect of the products in the mouse was assessed on a model of convulsions provoked by an electric shock, and on a model of convulsions induced by a chemical agent: bicuculline.
The test was slightly modified from that of SWINYARD et al (1952) and ASAMI et al (1974). The equipment was composed of a Racia shock generator provided with two ocular electrodes delivering a current of 12.5 volts for 0.3 seconds. The batches were constituted by 10 Charles River CDl mice, weighing between 20 and 24 g. The products were administered by the oral route, 60 minutes before the electric shock. The animals presenting no tonic extension of the rear limbs were considered as being protected from the convulsive crisis.

[5] = system: convulsions provoked by bicuculline in Charles River CDl mice; experiment: Antagonism of the convulsions provoked by bicuculline; format: in vivo; conditions: mouse; oral, 60 min before bicuculline 0.8 mg/kg i.v.; read-out: Median effective dose (ED50) Antagonism of Bicuculline
Experimental: as §2
The batches were constituted by 10 Charles River CDl mice, weighing between 20 and 22 g. The products were administered by the oral route, 60 minutes before the bicuculline (0.8 mg/kg, i.v.). The appearance of tonic convulsions was noted during the 60 minutes following the injection of the bicuculline.

[6] = system: spontaneous motility of female Charles River CDl mice; experiment: Effect of the products on the spontaneous motility (actimeter test); format: in vivo; conditions: Mus musculus, po, 0.75 h, 45 min after administration, recorded 10 min, vs controls, read-out: Locomotor activity Score (p.cent/controls)
[7] = system: turnaround reflex of mice; experiment: Loss of turnaround reflex (sleep-inducing effect); format: in vivo, mouse; conditions: 100 mg/kg, oral
Experimental: as §1
On the other hand, at the dose of 100 mg/kg, the CM 41378 provokes a loss of turnaround reflex characteristic of a sleep-inducing effect in 50% of the animals treated.

Structure (SMILES)	change in vivo at 250 mg/kg [1] [%]	mortality at 72 h ([2]; 250 mg/kg p.o.) [%]	mortality at 72 h ([2]; 500 mg/kg p.o.) [%]	mortality at 72 h ([2]; 1000 mg/kg p.o.) [%]	ED50 [3] [mg/kg]	ED50 [4] [mg/kg]	ED50 [5] [mg/kg]	change in vivo at 100 mg/kg [1] [%]	change in vivo at 10 mg/kg ([6]; 10 mg/kg p.o., * p 0,05 (Student test)) [%]	LD50 at 72 h [2] [mg/kg]	loss of turnaround reflex characteristic of a sleep-inducing effect, animals treated [7] [%]	change in vivo at 150 mg/kg ([6]; 150 mg/kg p.o., ** p 0,01 (Student test)) [%]
Oc1ccccc1-c1ccc(N2CCC(O)CC2)nn1 [SR 41559]	-66	0	0	0	–	–	–	–	–	–	–	–
OC1CCN(c2nccc(-c3ccc(Cl)cc3)n2)CC1 [SR 41554]	-26	0	0	0	66	145	147	–	–	–	–	–
OC1CCN(c2ccc(-c3ccc(F)cc3)nn2)CC1 [SR 41184]	–	0	60	100	–	48	–	-91	–	–	–	–
CCCC(=O)OC1CCN(c2ccc(-c3ccccc3Cl)nn2)CC1 [SR 41172, 3-(4-butyroyloxypiperidino)-6-(2-chlorophenyl)-pyridazine]	–	0	0	100	–	28	39	-32	–	–	–	–
OCCN(CCO)c1nccc(-c2ccc(Cl)cc2)n1 [SR 41590]	–	0	0	40	–	–	–	–	–	–	–	–
O=C1CCN(c2ccc(-c3ccccc3Cl)nn2)CC1 [SR 42488, 3-(4-oxo-iperidino)-6-(2-chlorophenyl)pyridazine]	–	0	0	0	67	40	35	–	–	–	–	–
OC1CCN(c2ccc(-c3ccccc3)nn2)CC1 [SR 41171]	–	0	0	100	–	86	83	-34	–	–	–	–
OC1CCN(c2ccc(-c3cccc(C(F)(F)F)c3)nn2)CC1 [CM 40857]	–	–	–	–	–	63	–	-87	–	–	–	–
Clc1ccccc1-c1ccc(N2CCC3(CC2)OCCO3)nn1 [SR 42487, 3-[1,4-dioxa-8-aza-spiro[4,5]decane-8-yl]-6-(2-chloro-phenyl)pyridazine]	–	0	0	0	–	57	–	-42	–	–	–	–
OC1CCN(c2ccc(-c3ccc(Cl)cc3)nn2)CC1 [CM 41127]	–	0	0	–	–	28	98	-68	–	–	–	–
OC1CCN(c2ccc(-c3ccccc3F)nn2)CC1 [SR 41558]	-93	0	0	80	–	115	30	–	–	–	–	–
OC1CCN(c2ncc(Cl)c(-c3ccc(Cl)cc3)n2)CC1 [SR 41556]	-29	0	0	0	–	–	–	–	–	–	–	–
OCCN(CCO)c1nccc(-c2ccccc2Cl)n1 [SR 41591]	–	0	0	0	–	–	–	–	–	–	–	–
OC1CCN(c2ccc(-c3ccc(Cl)c(Cl)c3)nn2)CC1 [SR 41155]	–	0	100	100	20	–	–	-82	–	–	–	–
O=C(OC1CCN(c2ccc(-c3ccccc3Cl)nn2)CC1)C1CC1 [SR 41174]	–	–	–	–	–	92	–	-15	–	–	–	–
OCC1CCN(c2ccc(-c3ccccc3Cl)nn2)C1 (stereo not drawn) [SR 41259]	–	–	–	–	–	–	–	-19	–	–	–	–
CN(C)C(=O)OC1CCN(c2ccc(-c3ccccc3Cl)nn2)CC1 [SR 42095]	–	–	–	–	7.4	2	1.6	–	-28	–	–	–
OC1CCN(c2ccc(-c3ccccc3Cl)nn2)CC1 [CM 40907, 3-(4-hydroxy-piperidino)-6-(2-chlorophenyl)pyridazine]	–	–	–	–	96	16	38	-66	–	807	–	–
O=[N+]([O-])c1ccccc1-c1ccc(N2CCC(O)CC2)nn1 [SR 41673, 3-(4-hydroxy-piperidino)-6-(2-nitrophenyl)-pyridazine]	-61	0	0	20	–	27	81	–	–	–	–	–
OC1CCN(c2ccc(-c3cccc(Cl)c3)nn2)CC1 [SR 41188]	–	0	0	60	–	45	–	-77	–	–	–	–
OCCC1CCN(c2ccc(-c3ccccc3Cl)nn2)CC1 [SR 41261]	–	–	–	–	–	–	–	-27	–	–	–	–
OC1CCN(c2ccc(-c3cccc4ccccc34)nn2)CC1 [SR 42399]	–	0	0	–	–	38	–	–	–	–	–	–
OC1CCN(c2ccc(-c3ccc(Cl)cc3Cl)nn2)CC1 [SR 41378, 3-(4-hydroxy-piperidino)-6-(2,4-dichloro-phenyl)pyridazine]	–	–	–	–	21	30	5.7	–	–	423	50	–
OC1CCN(c2ncc(Cl)c(-c3ccccc3Cl)n2)CC1 [CM 40858, Hydrobromide of 5-chloro-6-(2-chlorophenyl)-2-(4-hydroxy-piperidino)pyrimidine]	-20	0	0	0	–	49	–	–	–	–	–	–
COc1ccc(-c2ccc(N3CCC(O)CC3)nn2)cc1 [SR 41185]	-78	0	0	0	–	–	–	–	–	–	–	–
OC1CCN(c2ccc(-c3cc(Cl)ccc3Cl)nn2)CC1 [SR 41932]	–	0	0	100	–	30	131	–	–	–	–	-59
OC1CCN(c2ccc(-c3ccccc3Cl)nn2)C1 (stereo not drawn) [SR 41254]	–	0	0	20	–	–	–	-34	–	–	–	–
CNC(=O)OC1CCN(c2ccc(-c3ccccc3Cl)nn2)CC1 [SR 41820, 3-(4-methylcarbamoyloxy-piperidino)-6-(2-chloro-phenyl)pyridazine]	–	–	–	–	–	10	13	–	–	–	–	–

Source: US4624952A, “Pyridazine and pyrimidine compounds active on the central nervous system as sedatives or anticonvulsants” (Sanofi, priority 1983, dated 1986)
